Measurements reported in paper PMC10548512 (Chemical Science, 2023).

Columns and labels:
[1] = tested on: H1 ectodomain; settings: pH 7.5
[2] = tested on: H1N1pdm09 virus (A/Netherlands/602/2009); settings: for IC50: 1 h

| SMILES | Competition with fluorescein-labelled S5 for binding to H1 protein [1] | Infection inhibition in single-concentration screen [2] | Plateau of infection inhibition in dose-response [2] | IC50 [2] |
| --- | --- | --- | --- | --- |
| CC[C@H](C)[C@@H]1NC(=O)[C@H](CO)NC(=O)CNC(=O)CNC(=O)[C@H](CC(=O)O)NC(=O)[C@@H]2CCCN2C(=O)[C@H](Cc2c[nH]c3ccccc23)NC(=O)[C@H](CC(N)=O)NC(=O)[C@H](Cc2ccccc2)NC(=O)[C@H](C(C)C)NC(=O)[C@H](Cc2ccccc2)NC(=O)[C@H](CC(C)C)NC(=O)[C@@H]2CSC(=N2)c2cc(ccn2)C[C@@H](C(=O)NCC(N)=O)NC(=O)[C@H](CCCCN)NC(=O)[C@H](CC(N)=O)NC(=O)[C@H]([C@@H](C)O)NC1=O [M5] | compete | clear infection inhibition | plateau at less than full inhibition | 40.3 nM |
| CC[C@H](C)[C@@H]1NC(=O)CNC(=O)[C@H](CC(N)=O)NC(=O)[C@@H]2CCCN2C(=O)[C@H](C(C)C)NC(=O)[C@H](Cc2ccccc2)NC(=O)[C@H](Cc2ccc(O)cc2)NC(=O)[C@@H]2CCCN2C(=O)[C@H](Cc2ccccc2)NC(=O)[C@H](Cc2ccc(O)cc2)NC(=O)[C@H](CC(C)C)NC(=O)[C@@H]2CSC(=N2)c2cc(ccn2)C[C@@H](C(=O)NCC(N)=O)NC(=O)[C@H](CCC(=O)O)NC(=O)[C@H](CC(C)C)NC(=O)[C@H]([C@@H](C)CC)NC(=O)[C@H](CC(N)=O)NC1=O [M7] | compete | clear infection inhibition | plateau at less than full inhibition | 10.8 nM |
